Reference: patent US6280760A, “Peptide-coated implants and methods for producing same” (Merck Patent Gesellschaft mit beschraenkter Haftung, priority 1997, dated 2001)
Values belong to the compound of their own block, whether it stands above or below them.

Experiments:
osteoblast cell cultures = test: Inhibition of osteoblast binding to thiolpeptide 1-coated surfaces by dissolved cyclic RGDfK in the adhesion medium; assay type: cell-based, mouse, human, rat; details: dissolved peptide in the adhesion medium; coating 10 μM; FIG. 4
Procedure: FIG. 4: Adhesion of osteoblasts to test surfaces coated with thiolpeptide 1-SMPP derivative (10 μM in the coating solution) (see FIG. 2)
x axis: Concentration of dissolved cyclo-RGDfK (without molecular anchor) in the adhesion medium (μM),
To do this, 48-well plates (Costar, "non-tissue culture treated", Art. No. 3547) were each coated with 250 μl of PBS (phosphate-buffered saline), pH=8.3, 2% BSA, per well and incubated overnight at room temperature in order to generate a BSA layer on the polystyrene. The plates were then washed with 250 μl of PBS, pH=8.3, per well and incubated at room temperature for 1 hour with 250 μl each of a solution containing 100 μg/ml of SMPB in PBS, pH 8.3. Washing of the wells was then carried out three times using 250 μl of PBS, pH 8.3, each time. For the preparation of the coating solutions, the appropriate thiol-RGD peptide was prepared in the following final concentrations in PBS, pH 8.3: 1 nM, 10 nM, 100 nM, 1 μM, 10 μM, 100 μM and 1 mM. After addition of 250 μl each of coating solution/well, the plates were incubated at room temperature overnight and then washed three times with PBS, pH 8.3. […]
(§1) The quantification of the adhered cells was carried out indirectly via the activity determination of the cellular enzyme N-acetylhexosaminidase using an appropriate standard curve according to the method of Landegren (1984, J. Immunol. Methods, 67: 379-388).

human platelets = test: Adhesion of human platelets to PMMA bone cement shaped articles coated with cell-selective acrylate peptides; assay type: cell-based; details: for cell adhesion, calculated Abs (405 nm), platelets: first part experiment
Excerpt: (§2) The model used for material coating with RGD peptides of different cell selectivity to obtain implants having locally differentiated bioactive coating patterns which should stimulate the adhesion of different cell species was polymerized PMMA bone cement shaped articles. To these were covalently coupled two RGD peptides of different cell selectivity. In this case acrylate peptide 3, type iiia, having a selectivity for alphav beta3 -/alphav beta5 -integrin-bearing osteoblasts, and acrylate peptide 5, type iiia, having a selectivity for […] -positive platelets were bonded to the PMMA shaped articles as described for Example 3.
(§3) a. In the first part experiment, PMMA shaped articles were coated with the acrylate peptides 3 and 5 in concentrations in the coating solution of 100 μM, 10 μM and 1 μM in each case. These RGD peptide-coated materials were then inoculated in parallel with osteoblasts and platelets and their cell adhesion was determined.
(§4) MC3T3 H1 osteoblasts (350,000 cells/cm^2) and human platelets (50 million cells/cm^2) were in each case inoculated in parallel both onto acrylate peptide 3- and acrylate peptide 5-coated PMMA shaped articles and their cell adhesion was determined as described in Example 3.
Human platelets were prepared following the process of Shattil and Brass (J. Biol. Chem. 262:992-1000, 1987).
(§5) b. In the second part experiment, PMMA shaped articles were likewise coated with the acrylate peptides 3 and 5, but only in a concentration in the coating solution of 100 μM in each case. These RGD peptide-coated materials were then inoculated in parallel with osteoblasts, platelets or an osteoblast/platelet mixture and their cell adhesion was determined. MC3T3 H1 osteoblasts (350,000 cells/cm^2), human platelets (50 million cell/cm^2) and a cell mixture (350,000 osteoblasts/cm^2 […] 50 million platelets/cm^2) were in each case inoculated in parallel both onto acrylate peptide 3- and acrylate peptide 5-coated PMMA shaped articles and their cell adhesion was determined as described in Example 3.

[1] = system: osteoblasts/platelets mixture; test: Adhesion of an osteoblast/platelet mixture to PMMA bone cement shaped articles coated with cell-selective acrylate peptides; assay type: cell-based, mouse, human; details: second part experiment; 100 μM peptide in the coating solution
Procedure: as §5

MC3T3 H1 osteoblasts [2] = test: Adhesion of MC3T3 H1 osteoblasts to PMMA bone cement shaped articles coated with cell-selective acrylate peptides; assay type: cell-based, mouse; details: for cell adhesion, calculated Abs (405 nm), osteoblasts: first part experiment
Excerpt: as §2, §3, §4, §5

MC3T3 H1 osteoblasts [3] = test: Adhesion of MC3T3 H1 osteoblasts to PMMA moulded articles coated with acrylate RGD peptides; assay type: cell-based, mouse; details: for maximal adsorption rates: 48,000 cells/cm^2, 1 hour
Procedure: For the covalent coupling of these peptides to polymerized PMMA (polymethyl methacrylate) surfaces, appropriate shaped articles of differing porosity (diameter: 10 mm; height: 2 mm) were prepared from three different PMMA components.
Bone cement based on PMMA (Merck KGaA, Germany, Licence No. 5181.00.00) corresponding to the product description (40 g of powder+20 ml of liquid).
10 g of PMMA/PHEMA (polyhydroxyethyl methacrylate) granules, particle size 0.5-0.6 mm (Biomet) were mixed with 1.3 ml of an HEMA solution (68.6% HEMA, 29.4% TEGMA [triethylene glycol dimethacrylate], 2% tBPB, [tert-butyl peroxybenzoate]) and adhered by means of this to a porous support material.
10 g of PMMA granules (Plex Y7H, Rohm, Germany), particle fraction 0.7-2 mm were mixed with 1.5 ml of a methyl methacrylate (MMA) solution (68.6% MMA, 29.4% TEGMA, 2% tBPB) and adhered by this means to a porous support material.
For the covalent coupling of the acrylate peptides to the prepolymerized PMMA moulded articles, stock solutions of the acrylate peptides 1, 2, 3 and 4 were prepared in a final concentration of 100 μM in each case in DMSO/0.2% camphorquinone (w/v). Then, by dilution with isopropanol/0.2% camphorquinone (w/v), concentration series having final peptide concentrations of 0.1 nM, 1 nM, 10 nM, 100 nM, 1 μM and 10 μM in each case were prepared. The moulded articles were incubated in daylight and at room temperature for 2 hours and then stored at 4° C. in the dry state. Before use, the samples were washed with PBS, pH 7.4, to remove unbound peptides and stored at 4° C. in PBS, pH 7.4, overnight.
By addition of 250 μl/moulded article each of a 5% strength BSA solution in PBS, pH 7.4, and subsequent incubation for 2 hours at room temperature and washing once with PBS, pH 7.4, non-specific cell-binding sites were blocked.
Subsequently, the adhesion of osteoblasts of the MC3T3 H1 line, obtained from the calvaria of neonatal mice (Heermeier et al., 1995, Cells and Materials 5: 309-321) to the above-described peptide-coated surfaces was investigated.
The MC3T3 H1 osteoblasts were inoculated at an inoculation density of 48,000 cells/cm^2, as described above, in Costar 48-well plates, with PMMA moulded articles coated with RGD peptide and then incubated for 1 hour at 37° C., 95% atmospheric humidity and 5% CO2. Cells non-adhered during the experiment were then washed off twice with PBS, pH 7.4.
as §1

[4] = 1 μM peptide in the coating solution
[5] = 10 μM peptide in the coating solution
[6] = 100 μM peptide in the coating solution
[7] = second part experiment, 100 μM peptide in the coating solution
[8] = bone cement shaped articles, FIG. 8
[9] = different PMMA moulded articles

Compound: N=C(N)NCCC[C@@H]1NC(=O)[C@H](CCCCN)NC(=O)[C@@H](Cc2ccccc2)NC(=O)[C@H](CC(=O)O)NC(=O)CNC1=O [cyclic RGDfK, cyclo-RGDfK (Arg-Gly-Asp-DPhe-Lysine)]
- inhibition of osteoblast binding to thiolpeptide 1-sulpho-SMPB derivative-coated surfaces (osteoblast cell cultures): completely inhibited

Compound: cyclo (RGDf[acrylic-ahx-tEG-KG]) [acrylate peptide 5]
- cell adhesion, calculated Abs (405 nm), platelets (human platelets; [4]): about 0.2 Abs
- cell adhesion, calculated Abs (405 nm), platelets (human platelets; [5]): about 0.5 Abs
- cell adhesion, calculated Abs (405 nm), platelets (human platelets; [6]): about 4.0 Abs
- cell adhesion, Abs, platelets alone (human platelets; [7]): about 4.0 Abs
- cell adhesion, Abs, osteoblasts/platelets inoculated as a mixture [1]: about 6.5 Abs
- cell adhesion, calculated Abs (405 nm), osteoblasts (MC3T3 H1 osteoblasts [2]; [4]): about 0.2 Abs
- cell adhesion, calculated Abs (405 nm), osteoblasts (MC3T3 H1 osteoblasts [2]; [5]): about 1.0 Abs
- cell adhesion, calculated Abs (405 nm), osteoblasts (MC3T3 H1 osteoblasts [2]; [6]): about 1.5 Abs
- cell adhesion, Abs, osteoblasts alone (MC3T3 H1 osteoblasts [2]; [7]): about 1.5 Abs

Compound: cyclo(RGDf[acrylic-ahx-K]) [acrylate peptide 1]
- stimulation of cell adhesion (in words) (MC3T3 H1 osteoblasts [3]; PMMA carriers, comparison of anchor lengths): almost inactive
- cell adsorption rates increased in comparison with uncoated surfaces (MC3T3 H1 osteoblasts [3]; [8]): about 1.5 fold
- maximal adsorption rates (MC3T3 H1 osteoblasts [3]; [9]): about 20%

- EC50 (MC3T3 H1 osteoblasts [3]; different PMMA moulded articles, read-out: half-maximal cell bindings, RGD peptide concentration in the coating solution): 0.001 to 10 µM
Compound: cyclo(RGDf[acrylic-ahx-ahx-K]) [acrylate peptide 2]
- cell adsorption rates increased in comparison with uncoated surfaces (MC3T3 H1 osteoblasts [3]; [8]): 5-15 fold
- maximal adsorption rates (MC3T3 H1 osteoblasts [3]; [9]): 80-100%
- cell adsorption rates increased in comparison with uncoated surfaces (MC3T3 H1 osteoblasts [3]; porous PMMA/PHEMA granule shaped articles, FIG. 9): 2-5 fold
- cell adsorption rates increased in comparison with uncoated surfaces (MC3T3 H1 osteoblasts [3]; porous Plex Y7H granule shaped articles, FIG. 10): 2-3 fold
